# The source made the active and inactive calls. The rule behind the calls is not given here.
# Key:
# [1] = Cytotoxicity against mouse L5178 cells assessed as reduction in cell viability after 72 hrs by MTT assay; assay type: functional, cell-based; conditions: L5178, 72 h
# [2] = Cytotoxicity against mouse L5178B1 cells transfected with pHa MDR1/A retrovirus assessed as reduction in cell viability after 72 hrs by MTT assay; assay type: functional, cell-based; conditions: MDR1, 72 h
# NCI-H460 [3] = assay: Cytotoxicity against human NCI-H460 cells assessed as reduction in cell viability after 72 hrs by MTT assay; assay type: functional, cell-based; conditions: NCI-H460, 72 h
# [4] = Cytotoxicity against human NCI-H460/R cells transfected with MDR assessed as reduction in cell viability after 72 hrs by MTT assay; assay type: functional, cell-based; conditions: NCI-H460, 72 h
# A549 [5] = assay: Cytotoxicity against human A549 cells assessed as reduction in cell viability after 72 hrs by MTT assay; assay type: functional, cell-based; conditions: A549, 72 h
# NCI-H661 [6] = assay: Cytotoxicity against human NCI-H661 cells assessed as reduction in cell viability after 72 hrs by MTT assay; assay type: functional, cell-based; conditions: NCI-H661, 72 h
# HaCaT [7] = assay: Cytotoxicity against human HaCaT cells assessed as reduction in cell viability after 72 hrs by MTT assay; assay type: cell-based
# HeLa = assay: Cytotoxicity against human HeLa cells assessed as reduction in cell viability after 72 hrs by MTT assay; assay type: functional, cell-based
# NCI-H460 [8] = assay: Induction of apoptosis in human NCI-H460 cells assessed as viable cells at 10 uM after 24 hrs by Annexin V/propidium iodide-staining based flow cytometry (reference value: 96.49 +/- 0.96%); assay type: functional; conditions: NCI-H460, 24 h, read-out: Activity
# [9] = Induction of apoptosis in human NCI-H460/R cells transfected with MDR assessed as viable cells at 10 uM after 24 hrs by Annexin V/propidium iodide-staining based flow cytometry (reference value: 95.76 +/- 2.87%); assay type: functional; conditions: NCI-H460, 24 h, read-out: Activity
# A549 [10] = assay: Induction of apoptosis in human A549 cells assessed as viable cells at 10 uM after 24 hrs by Annexin V/propidium iodide-staining based flow cytometry (reference value: 96.45 +/- 2.89%); assay type: functional; conditions: A549, 24 h, read-out: Activity
# NCI-H661 [11] = assay: Induction of apoptosis in human NCI-H661 cells assessed as viable cells at 10 uM after 24 hrs by Annexin V/propidium iodide-staining based flow cytometry (reference value: 96.16 +/- 0.96%); assay type: functional; conditions: NCI-H661, 24 h, read-out: Activity
# [12] = Induction of apoptosis in human HaCaT cells assessed as viable cells at 10 uM after 24 hrs by Annexin V/propidium iodide-staining based flow cytometry (reference value: 95.63 +/- 3.83%); assay type: cell-based; conditions: read-out: Activity
# NCI-H460 [13] = assay: Induction of apoptosis in human NCI-H460 cells assessed as early apoptotic cells at 10 uM after 24 hrs by Annexin V/propidium iodide-staining based flow cytometry (reference value: 0.45 +/- 0.01%); assay type: functional
# [14] = Induction of apoptosis in human NCI-H460/R cells transfected with MDR assessed as early apoptotic cells at 10 uM after 24 hrs by Annexin V/propidium iodide-staining based flow cytometry (reference value: 0.22 +/- 0.01%); assay type: functional
# A549 [15] = assay: Induction of apoptosis in human A549 cells assessed as early apoptotic cells at 10 uM after 24 hrs by Annexin V/propidium iodide-staining based flow cytometry (reference value: 0.48 +/- 0.01%); assay type: functional
# NCI-H661 [16] = assay: Induction of apoptosis in human NCI-H661 cells assessed as early apoptotic cells at 10 uM after 24 hrs by Annexin V/propidium iodide-staining based flow cytometry (reference value: 0.31 +/- 0.01%); assay type: functional
# HaCaT [17] = assay: Induction of apoptosis in human HaCaT cells assessed as early apoptotic cells at 10 uM after 24 hrs by Annexin V/propidium iodide-staining based flow cytometry (reference value: 0.23 +/- 0.01%); assay type: cell-based
# NCI-H460 [18] = assay: Induction of apoptosis in human NCI-H460 cells assessed as late apoptotic cells at 10 uM after 24 hrs by Annexin V/propidium iodide-staining based flow cytometry (reference value: 0.93 +/- 0.04%); assay type: functional
# [19] = Induction of apoptosis in human NCI-H460/R cells transfected with MDR assessed as late apoptotic cells at 10 uM after 24 hrs by Annexin V/propidium iodide-staining based flow cytometry (reference value: 0.84 +/- 0.01%); assay type: functional
# A549 [20] = assay: Induction of apoptosis in human A549 cells assessed as late apoptotic cells at 10 uM after 24 hrs by Annexin V/propidium iodide-staining based flow cytometry (reference value: 1.54 +/- 0.03%); assay type: functional
# NCI-H661 [21] = assay: Induction of apoptosis in human NCI-H661 cells assessed as late apoptotic cells at 10 uM after 24 hrs by Annexin V/propidium iodide-staining based flow cytometry (reference value: 0.95 +/- 0.03%); assay type: functional
# HaCaT [22] = assay: Induction of apoptosis in human HaCaT cells assessed as late apoptotic cells at 10 uM after 24 hrs by Annexin V/propidium iodide-staining based flow cytometry (reference value: 2.26 +/- 0.09%); assay type: cell-based
# NCI-H460 [23] = assay: Induction of apoptosis in human NCI-H460 cells assessed as necrotic cells at 10 uM after 24 hrs by Annexin V/propidium iodide-staining based flow cytometry (reference value: 2.13 +/- 0.02%); assay type: functional
# [24] = Induction of apoptosis in human NCI-H460/R cells transfected with MDR assessed as necrotic cells at 10 uM after 24 hrs by Annexin V/propidium iodide-staining based flow cytometry (reference value: 3.17 +/- 0.13%); assay type: functional
# A549 [25] = assay: Induction of apoptosis in human A549 cells assessed as necrotic cells at 10 uM after 24 hrs by Annexin V/propidium iodide-staining based flow cytometry (reference value: 1.52 +/- 0.05%); assay type: functional
# NCI-H661 [26] = assay: Induction of apoptosis in human NCI-H661 cells assessed as necrotic cells at 10 uM after 24 hrs by Annexin V/propidium iodide-staining based flow cytometry (reference value: 2.58 +/- 0.05%); assay type: functional
# HaCaT [27] = assay: Induction of apoptosis in human HaCaT cells assessed as necrotic cells at 10 uM after 24 hrs by Annexin V/propidium iodide-staining based flow cytometry (reference value: 1.88 +/- 0.02%); assay type: cell-based
# NCI-H460 [28] = assay: DNA protective activity in human NCI-H460 cells assessed as reduction in H2AX expression at 10 uM after 24 hrs by alexa fluor 488-staining based flow cytometry; assay type: functional, cell-based
# HaCaT [29] = assay: DNA protective activity in human HaCaT cells assessed as reduction in H2AX expression at 10 uM after 24 hrs by alexa fluor 488-staining based flow cytometry; assay type: functional, cell-based
# Homo sapiens [30] = species on record: Homo sapiens; assay: DNA protective activity in human NCI-H460/R cells transfected with MDR assessed as increase in H2AX expression at 10 uM after 24 hrs by alexa fluor 488-staining based flow cytometry; assay type: functional, cell-based
# NCI-H460 [31] = assay: Reduction in ROS generation in human NCI-H460 cells assessed as decrease in DHE positive cells at 10 uM after 24 hrs by DHE-staining based flow cytometry; assay type: functional, cell-based
# A549 [32] = assay: Reduction in ROS generation in human A549 cells assessed as decrease in DHE positive cells at 10 uM after 24 hrs by DHE-staining based flow cytometry; assay type: functional, cell-based
# NCI-H661 [33] = assay: Reduction in ROS generation in human NCI-H661 cells assessed as decrease in DHE positive cells at 10 uM after 24 hrs by DHE-staining based flow cytometry; assay type: functional, cell-based
# Homo sapiens [34] = species on record: Homo sapiens; assay: Reduction in ROS generation in human NCI-H460/R cells transfected with MDR assessed as reduction in DHE positive cells at 10 uM after 24 hrs by DHE-staining based flow cytometry; assay type: functional, cell-based
# HaCaT [35] = assay: Reduction in ROS generation in human HaCaT cells assessed as decrease in DHE positive cells at 10 uM after 24 hrs by DHE-staining based flow cytometry; assay type: functional, cell-based
compound,measurement,setting,value
COC(=O)/C=C/c1cc(O)ccc1O,IC50,[1],5.23 µM
same,IC50,[2],12.4 µM
same,IC50,NCI-H460 [3],3.77 µM
same,IC50,[4],7.05 µM
same,IC50,A549 [5],4.14 µM
same,IC50,NCI-H661 [6],4.19 µM
same,IC50,HaCaT [7],9.69 µM
same,IC50,HeLa,8.51 µM
same,viability at 10 µM,NCI-H460 [8],86.6%
same,viability at 10 µM,[9],89.7%
same,viability at 10 µM,A549 [10],88.2%
same,viability at 10 µM,NCI-H661 [11],89.4%
same,"viability at 24 h, 10 µM",[12],91%
same,Activity,NCI-H460 [13],0.34%
same,Activity,[14],0.16%
same,Activity,A549 [15],2.36%
same,Activity,NCI-H661 [16],0.49%
same,Activity,HaCaT [17],0.5%
same,Activity,NCI-H460 [18],5.1%
same,Activity,[19],2.48%
same,Activity,A549 [20],5.62%
same,Activity,NCI-H661 [21],3.39%
same,Activity,HaCaT [22],2.65%
same,Activity,NCI-H460 [23],9.92%
same,Activity,[24],7.71%
same,Activity,A549 [25],3.78%
same,Activity,NCI-H661 [26],6.69%
same,Activity,HaCaT [27],5.9%
same,Activity,NCI-H460 [28],Active
same,Activity,HaCaT [29],Active
same,Activity,Homo sapiens [30],Active
same,Activity,NCI-H460 [31],Active
same,Activity,A549 [32],Active
same,Activity,NCI-H661 [33],Active
same,Activity,Homo sapiens [34],Active
same,Activity,HaCaT [35],Active
